Data reported in PubChem BioAssay AID1963871 (Molecular Pharmacology Branch, DTP, NCI, 2024).

Tested on: KRAS-mutant PDC multicell tumor spheroid viability
Test: Anticancer human tumor 521955-158-R2-J5-PDC patient-derived pancreatic carcinoma cell line growth inhibition [KRAS2]
Settings: for IC50: curve of first compound; for viability, T/C: stronger effect = lower value
Description: Multicellular complex tumor spheroid response to RAS pathway inhibitors in combination with a targeted agents in patient-derived cell lines with oncogenic KRAS variants from multiple cancer types
A high-throughput screen of multi-cell type tumor spheroids was designed to identify active combinations of targeted small molecules and KRAS pathway inhibitors. Complex spheroids include a stromal component modeled by human endothelial cells (HUVEC) and fibroblasts modeled by human mesenchymal stem cells (MSCs). The concentration ranges selected for each drug and investigational agent were based upon clinically achievable concentrations if the clinical Cmax of the agent was known.
Compounds. The drugs and investigational agents: BI-3406 (NSC825286), BAY-293 (NSC824723), batoprotafib (TNO155; NSC825523), sotorasib (AMG 510; NSC818433), MRTX1257 (NSC819558), elimusertib (BAY 1895344; NSC800525), molibresib (GSK525762; NSC774829), temuterkib (LY3214996; NSC803410), venetoclax (NSC766270), alisertib (NSC759677), olaparib (NSC753686), talazoparib (NSC767125), erdafitinib (NSC781556), ipatasertib (NSC767898), cabozantinib (NSC761068), nintedanib (NSC756659), abemaciclib (NSC768073), docetaxel (NSC628503), trametinib (NSC758246), and sapanisertib (NSC764658) were obtained from the National Cancer Institute (NCI) Developmental Therapeutics Program Chemical Repository. The FDA-approved anticancer drug set is available from the Developmental Therapeutics Program. […] The stock solutions were prepared in dimethyl sulfoxide (DMSO, Sigma-Aldrich, St. Louis, MO, cat. D2650) at 800-fold the tested concentration and stored at -70 degrees C prior to their use. All drugs and investigational agents were tested over a range starting from a high concentration at or near the clinical Cmax and decreasing in half-log increments. If the clinical Cmax for an agent had not been determined, the highest concentration tested was 10 microM.
Cell Culture. All cells were maintained in an incubator at 37 degrees C and 5% CO2 with 95% humidity. The PDC lines were cultured according to standard operating procedures established by the NCI PDMR (https://pdmr.cancer.gov/sops/default.htm). Briefly, all PDCs were thawed and cultured in Matrigel-coated flasks prepared with a working solution of 1X Ham's F-12 nutrient mix, without supplementation (Invitrogen, Waltham, MA, cat. 11765054), 100 U/mL penicillin-streptomycin (Invitrogen, cat. 15140122), and 2.5% Matrigel (Corning Inc., Corning, NY, cat. 354248) for the first three passages. All PDCs were cultured in complete DMEM/F-12 media containing advanced DMEM/F-12 (Invitrogen, cat. 12634028), 4.9% defined fetal bovine serum, heat inactivated (HyClone Laboratories Inc., Logan, UT, cat. SH30070.03HI), 389 ng/mL hydrocortisone (Sigma-Aldrich, cat. H4001), 9.7 ng/mL human EGF recombinant protein (Invitrogen, cat. PHG0313), 23.4 microg/mL adenine (Sigma-Aldrich, cat. A2786), 97.3 U/mL penicillin-streptomycin (Invitrogen, cat. 15140122), 1.9 mM L-glutamine (Invitrogen, cat. 25030081), and 9.7 microM Y-27632 dihydrochloride (Tocris Bioscience, Bristol, United Kingdom, cat. 1254). The PDCs were cultured in complete DMEM/F12 media without 9.7 microM Y-27632 dihydrochloride for at least two passages prior to the screen. The established cell line HOP-62 was cultured in RPMI 1640 medium, HEPES (Invitrogen, cat. 22400105) with 10% defined fetal bovine serum (HyClone Laboratories Inc., cat. SH30070.03) and 2 mM L-glutamine (Invitrogen, cat. 25030081). The pooled donor HUVEC were cultured in endothelial cell growth medium 2 (PromoCell, Heidelberg, Germany, cat. C-22011) and the hMSC were cultured in mesenchymal stem cell growth medium 2 (PromoCell, cat. C-28009). For all experiments, HUVEC and hMSC were used at passages </=5, while the malignant cell lines were used at passages </=15. […]

[1] = second compound 0.1 µM, first compound 0.0316 µM
[2] = second compound 0.316 µM, first compound 0.0316 µM
[3] = second compound 1 µM, first compound 0.0316 µM
[4] = second compound 3.16 µM, first compound 0.0316 µM
[5] = second compound 10 µM, first compound 0.0316 µM
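Note: viability read after seven days of drug exposure.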

SMILES: CC(=O)Nc1cccc(-n2c(=O)n(C3CC3)c(=O)c3c(Nc4ccc(I)cc4F)n(C)c(=O)c(C)c32)c1 + C=CC(=O)N1CCN(c2nc(=O)n(-c3c(C)ccnc3C(C)C)c3nc(-c4c(O)cccc4F)c(F)cc23)C(C)C1
- IC50 (second compound 0.1 µM): 0.493 nM
- IC50 (second compound 0.316 µM): 0.426 nM
- IC50 (second compound 1 µM): 1 nM
- IC50 (second compound 3.16 µM): 0.444 nM
- IC50 (second compound 10 µM): < 0.1 nM
- viability, T/C (second compound 0.1 µM, first compound 0.0001 µM): 84.6%
- viability, T/C (second compound 0.1 µM, first compound 0.000316 µM): 52.6%
- viability, T/C (second compound 0.1 µM, first compound 0.001 µM): 41.3%
- viability, T/C (second compound 0.1 µM, first compound 0.00316 µM): 30.1%
- viability, T/C (second compound 0.1 µM, first compound 0.01 µM): 25.8%
- viability, T/C [1]: 15.7%
- viability, T/C (second compound 0.316 µM, first compound 0.0001 µM): 89.7%
- viability, T/C (second compound 0.316 µM, first compound 0.000316 µM): 51.9%
- viability, T/C (second compound 0.316 µM, first compound 0.001 µM): 38.2%
- viability, T/C (second compound 0.316 µM, first compound 0.00316 µM): 31.4%
- viability, T/C (second compound 0.316 µM, first compound 0.01 µM): 28.9%
- viability, T/C [2]: 19.6%
- viability, T/C (second compound 1 µM, first compound 0.0001 µM): 87.9%
- viability, T/C (second compound 1 µM, first compound 0.000316 µM): 61%
- viability, T/C (second compound 1 µM, first compound 0.001 µM): 54.7%
- viability, T/C (second compound 1 µM, first compound 0.00316 µM): 36.6%
- viability, T/C (second compound 1 µM, first compound 0.01 µM): 32.9%
- viability, T/C [3]: 24.5%
- viability, T/C (second compound 3.16 µM, first compound 0.0001 µM): 63.5%
- viability, T/C (second compound 3.16 µM, first compound 0.000316 µM): 51.7%
- viability, T/C (second compound 3.16 µM, first compound 0.00316 µM): 33.5%
- viability, T/C (second compound 3.16 µM, first compound 0.01 µM): 29.5%
- viability, T/C [4]: 18.5%
- viability, T/C (second compound 10 µM, first compound 0.0001 µM): 50.6%
- viability, T/C (second compound 10 µM, first compound 0.000316 µM): 37.1%
- viability, T/C (second compound 10 µM, first compound 0.001 µM): 28.8%
- viability, T/C (second compound 10 µM, first compound 0.00316 µM): 32.4%
- viability, T/C (second compound 10 µM, first compound 0.01 µM): 25%
- viability, T/C [5]: 17.8%

SMILES: COC(=O)c1ccc2c(C(=Nc3ccc(N(C)C(=O)CN4CCN(C)CC4)cc3)c3ccccc3)c(O)[nH]c2c1 + C=CC(=O)N1CCN(c2nc(=O)n(-c3c(C)ccnc3C(C)C)c3nc(-c4c(O)cccc4F)c(F)cc23)C(C)C1
- IC50 (second compound 0.1 µM): 1720 nM
- IC50 (second compound 0.316 µM): 1540 nM
- IC50 (second compound 1 µM): 727 nM
- IC50 (second compound 3.16 µM): 1010 nM
- IC50 (second compound 10 µM): 1260 nM
- viability, T/C [1]: 89.6%
- viability, T/C (second compound 0.1 µM, first compound 0.1 µM): 88.4%
- viability, T/C (second compound 0.1 µM, first compound 0.316 µM): 87%
- viability, T/C (second compound 0.1 µM, first compound 1 µM): 75.9%
- viability, T/C (second compound 0.1 µM, first compound 3.16 µM): 21%
- viability, T/C (second compound 0.1 µM, first compound 10 µM): 0.16%
- viability, T/C [2]: 102%
- viability, T/C (second compound 0.316 µM, first compound 0.1 µM): 88.1%
- viability, T/C (second compound 0.316 µM, first compound 0.316 µM): 89.9%
- viability, T/C (second compound 0.316 µM, first compound 1 µM): 74.2%
- viability, T/C (second compound 0.316 µM, first compound 3.16 µM): 10.3%
- viability, T/C (second compound 0.316 µM, first compound 10 µM): 0.14%
- viability, T/C [3]: 113%
- viability, T/C (second compound 1 µM, first compound 0.1 µM): 96.4%
- viability, T/C (second compound 1 µM, first compound 0.316 µM): 77%
- viability, T/C (second compound 1 µM, first compound 1 µM): 43.5%
- viability, T/C (second compound 1 µM, first compound 3.16 µM): 4.15%
- viability, T/C (second compound 1 µM, first compound 10 µM): 0.16%
- viability, T/C [4]: 86%
- viability, T/C (second compound 3.16 µM, first compound 0.1 µM): 82.1%
- viability, T/C (second compound 3.16 µM, first compound 0.316 µM): 67.9%
- viability, T/C (second compound 3.16 µM, first compound 1 µM): 53.4%
- viability, T/C (second compound 3.16 µM, first compound 3.16 µM): 2.33%
- viability, T/C (second compound 3.16 µM, first compound 10 µM): 0.14%
- viability, T/C [5]: 66.5%
- viability, T/C (second compound 10 µM, first compound 0.1 µM): 71.5%
- viability, T/C (second compound 10 µM, first compound 0.316 µM): 56.6%
- viability, T/C (second compound 10 µM, first compound 1 µM): 61.2%
- viability, T/C (second compound 10 µM, first compound 3.16 µM): 4.87%
- viability, T/C (second compound 10 µM, first compound 10 µM): 0.22%
